Data: PubChem BioAssay AID270 (DTP/NCI, 2004)
Values joined by “and” are separate entries in the source; they are usually repeats but may differ in a detail not shown here. Equal entries are not always repeated. Results filed as inconclusive are left out.

System: BDF1 mice, s.c. Lewis lung carcinoma, T/C %
Assay: NCI In Vivo Anticancer Drug Screen. Data for tumor model Lewis Lung Carcinoma (subcutaneous) in B6D2F1 (BDF1) mice
Summary of the method: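 Transplanted tumors grown in mice; compound vs vehicle dosing; endpoint survival or tumor size; ratio T/C.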

Compound: O=NN(CCF)C(=O)NC1CCS(=O)(=O)CC1
- T/C (endpoint: median survival time, dose: 9.0 mg/kg/injection, schedule: Q01DX001 (ip), vehicle: other, higher = longer survival): 120 % of control
- T/C (endpoint: median survival time, dose: 14.0 mg/kg/injection, schedule: Q01DX001 (ip), vehicle: other, higher = longer survival): 109 % of control
- T/C (endpoint: median survival time, dose: 21.0 mg/kg/injection, schedule: Q01DX001 (ip), vehicle: other, higher = longer survival): 121 % of control
- T/C (endpoint: median survival time, dose: 32.0 mg/kg/injection, schedule: Q01DX001 (ip), vehicle: other, higher = longer survival): 107 % of control
- T/C (endpoint: median tumor weight (est.), dose: 11.0 mg/kg/injection, schedule: Q01DX001 (ip), vehicle: other, higher = larger tumour): 65 % of control
- T/C (endpoint: median tumor weight (est.), dose: 21.0 mg/kg/injection, schedule: Q01DX001 (ip), vehicle: other, higher = larger tumour): 65 % of control
- T/C (endpoint: median tumor weight (est.), dose: 32.0 mg/kg/injection, schedule: Q01DX001 (ip), vehicle: other, higher = larger tumour): 10 % of control

Compound: OCc1ccccc1OC1OC(CO)C(O)C(O)C1O (stereo not given)
- T/C (endpoint: mean tumor weight, dose: 100.0 mg/kg/injection, schedule: Q01DX011 (ip), vehicle: carboxymethylcellulose (CMC), higher = larger tumour): 106 % of control
- T/C (endpoint: mean tumor weight, dose: 200.0 mg/kg/injection, schedule: Q01DX011 (ip), vehicle: carboxymethylcellulose (CMC), higher = larger tumour): 86 % of control
- T/C (endpoint: mean tumor weight, dose: 400.0 mg/kg/injection, schedule: Q01DX011 (ip), vehicle: carboxymethylcellulose (CMC), higher = larger tumour): 100 % of control

Compound: COc1cc(OC)c(-c2cc(=O)c3c(OC)c(OC)c(OC)c(OC)c3o2)cc1OC
- T/C (endpoint: mean tumor weight, dose: 50.0 mg/kg/injection, schedule: Q01DX011 (ip), vehicle: saline, higher = larger tumour): 73 % of control
- T/C (endpoint: mean tumor weight, dose: 100.0 mg/kg/injection, schedule: Q01DX011 (ip), vehicle: saline, higher = larger tumour): 70 % of control
- T/C (endpoint: mean tumor weight, dose: 200.0 mg/kg/injection, schedule: Q01DX011 (ip), vehicle: saline, higher = larger tumour): 97 % of control
- T/C (endpoint: mean tumor weight, dose: 400.0 mg/kg/injection, schedule: Q01DX011 (ip), vehicle: saline, higher = larger tumour): 51 % of control

Compound: N#Cc1ccc(NC(=O)N(CCCl)N=O)cc1
- T/C (endpoint: median tumor weight (est.), dose: 13.0 mg/kg/injection, schedule: Q01DX001 (ip), vehicle: Klucel (hydroxypropylcellulose) (HPC), higher = larger tumour): 83 % of control
- T/C (endpoint: median tumor weight (est.), dose: 19.0 mg/kg/injection, schedule: Q01DX001 (ip), vehicle: Klucel (hydroxypropylcellulose) (HPC), higher = larger tumour): 118 % of control
- T/C (endpoint: median tumor weight (est.), dose: 29.0 mg/kg/injection, schedule: Q01DX001 (ip), vehicle: Klucel (hydroxypropylcellulose) (HPC), higher = larger tumour): 109 % of control
- T/C (endpoint: median tumor weight (est.), dose: 44.0 mg/kg/injection, schedule: Q01DX001 (ip), vehicle: Klucel (hydroxypropylcellulose) (HPC), higher = larger tumour): 73 % of control
- T/C (endpoint: median tumor weight (est.), dose: 67.0 mg/kg/injection, schedule: Q01DX001 (ip), vehicle: Klucel (hydroxypropylcellulose) (HPC), higher = larger tumour): 39 % of control

Compound: CCCCSc1nc(N)nc2c1ncn2CC(C)CC (stereo not given)
- T/C (endpoint: mean tumor weight, dose: 75.0 mg/kg/injection, schedule: Q01DX011 (ip), vehicle: other, higher = larger tumour): 103 % of control
- T/C (endpoint: mean tumor weight, dose: 150.0 mg/kg/injection, schedule: Q01DX011 (ip), vehicle: other, higher = larger tumour): 50 % of control
- T/C (endpoint: mean tumor weight, dose: 300.0 mg/kg/injection, schedule: Q01DX011 (ip), vehicle: other, higher = larger tumour): 53 % of control

Compound: CCOC(=O)CC(NC(=O)CP(=O)(OCC)OCC)C(=O)OCC (stereo not given)
- T/C (endpoint: median survival time, dose: 50.0 mg/kg/injection, schedule: Q01DX004 (ip), vehicle: saline, higher = longer survival): 113 % of control
- T/C (endpoint: median survival time, dose: 100.0 mg/kg/injection, schedule: Q01DX004 (ip), vehicle: saline, higher = longer survival): 116 % of control
- T/C (endpoint: median survival time, dose: 200.0 mg/kg/injection, schedule: Q01DX004 (ip), vehicle: saline, higher = longer survival): 124 % of control
- T/C (endpoint: median survival time, dose: 400.0 mg/kg/injection, schedule: Q01DX004 (ip), vehicle: saline, higher = longer survival): 116 % of control
- T/C (endpoint: median survival time, dose: 800.0 mg/kg/injection, schedule: Q01DX004 (ip), vehicle: saline, higher = longer survival): 116 % of control
- T/C (endpoint: median survival time, dose: 1600.0 mg/kg/injection, schedule: Q01DX004 (ip), vehicle: saline, higher = longer survival): 120 % of control

Compound: COc1cccc2c1C(=O)c1c(O)c3c(c(O)c1C2=O)C[C@@](O)(C(=O)CO)C[C@@H]3OC1CC(N)C(O)C(C)O1 (stereo not given in full)
- T/C (endpoint: median survival time, dose: 0.03 mg/kg/injection, schedule: Q01DX009 (ip), vehicle: saline, higher = longer survival): 88 % of control
- T/C (endpoint: median survival time, dose: 0.06 mg/kg/injection, schedule: Q01DX009 (ip), vehicle: saline, higher = longer survival): 88 % of control
- T/C (endpoint: median survival time, dose: 0.12 mg/kg/injection, schedule: Q01DX009 (ip), vehicle: saline, higher = longer survival): 100 % of control
- T/C (endpoint: median survival time, dose: 0.25 mg/kg/injection, schedule: Q01DX009 (ip), vehicle: saline, higher = longer survival): 105 % of control
- T/C (endpoint: median survival time, dose: 0.25 mg/kg/injection, schedule: Q08HX024 (ip), vehicle: saline, higher = longer survival): 113 % of control
- T/C (endpoint: median survival time, dose: 0.5 mg/kg/injection, schedule: Q08HX024 (ip), vehicle: saline, higher = longer survival): 182 % of control
- T/C (endpoint: median survival time, dose: 1.0 mg/kg/injection, schedule: Q08HX024 (ip), vehicle: saline, higher = longer survival): 89 % of control
- T/C (endpoint: median survival time, dose: 1.92 mg/kg/injection, schedule: Q04DX003 (ip), vehicle: saline, higher = longer survival): 104 % of control and 106 % of control
- T/C (endpoint: median survival time, dose: 1.92 mg/kg/injection, schedule: Q04DX003 (iv), vehicle: saline, higher = longer survival): 93 % of control and 108 % of control
- T/C (endpoint: median survival time, dose: 2.74 mg/kg/injection, schedule: Q04DX003 (ip), vehicle: saline, higher = longer survival): 99 % of control and 103 % of control
- T/C (endpoint: median survival time, dose: 2.74 mg/kg/injection, schedule: Q04DX003 (iv), vehicle: saline, higher = longer survival): 99 % of control and 111 % of control
- T/C (endpoint: median survival time, dose: 3.36 mg/kg/injection, schedule: Q01DX001 (ip), vehicle: saline, higher = longer survival): 101 % of control and 102 % of control
- T/C (endpoint: median survival time, dose: 3.36 mg/kg/injection, schedule: Q01DX001 (iv), vehicle: saline, higher = longer survival): 101 % of control and 105 % of control
- T/C (endpoint: median survival time, dose: 3.9 mg/kg/injection, schedule: Q04DX003 (ip), vehicle: saline, higher = longer survival): 105 % of control and 123 % of control
- T/C (endpoint: median survival time, dose: 3.9 mg/kg/injection, schedule: Q04DX003 (iv), vehicle: saline, higher = longer survival): 108 % of control and 113 % of control
- T/C (endpoint: median survival time, dose: 4.8 mg/kg/injection, schedule: Q01DX001 (ip), vehicle: saline, higher = longer survival): 98 % of control and 102 % of control
- T/C (endpoint: median survival time, dose: 4.8 mg/kg/injection, schedule: Q01DX001 (iv), vehicle: saline, higher = longer survival): 90 % of control and 102 % of control
- T/C (endpoint: median survival time, dose: 5.6 mg/kg/injection, schedule: Q04DX003 (iv), vehicle: saline, higher = longer survival): 105 % of control
- T/C (endpoint: median survival time, dose: 6.86 mg/kg/injection, schedule: Q01DX001 (ip), vehicle: saline, higher = longer survival): 117 % of control
- T/C (endpoint: median survival time, dose: 6.86 mg/kg/injection, schedule: Q01DX001 (iv), vehicle: saline, higher = longer survival): 111 % of control and 114 % of control
- T/C (endpoint: median survival time, dose: 9.8 mg/kg/injection, schedule: Q01DX001 (iv), vehicle: saline, higher = longer survival): 105 % of control
- T/C (endpoint: median survival time, dose: 14.0 mg/kg/injection, schedule: Q01DX001 (ip), vehicle: saline, higher = longer survival): 99 % of control

Compound: O=NN(CCCl)C(=O)N[C@H]1CCCC[C@@H]1Cl
- T/C (endpoint: median survival time, dose: 9.0 mg/kg/injection, schedule: Q01DX001 (ip), vehicle: Klucel (hydroxypropylcellulose) (HPC), higher = longer survival): 112 % of control
- T/C (endpoint: median survival time, dose: 11.0 mg/kg/injection, schedule: Q01DX001 (ip), vehicle: gum acacia, higher = longer survival): 114 % of control
- T/C (endpoint: median survival time, dose: 17.0 mg/kg/injection, schedule: Q01DX001 (ip), vehicle: gum acacia, higher = longer survival): 107 % of control
- T/C (endpoint: median survival time, dose: 18.0 mg/kg/injection, schedule: Q01DX001 (ip), vehicle: Klucel (hydroxypropylcellulose) (HPC), higher = longer survival): 124 % of control
- T/C (endpoint: median survival time, dose: 25.0 mg/kg/injection, schedule: Q01DX001 (ip), vehicle: gum acacia, higher = longer survival): 95 % of control
- T/C (endpoint: median survival time, dose: 25.0 mg/kg/injection, schedule: Q04DX004 (ip), vehicle: gum acacia, higher = longer survival): 172 % of control
- T/C (endpoint: median survival time, dose: 45.0 mg/kg/injection, schedule: Q07DX002 (ip), vehicle: gum acacia, higher = longer survival): 159 % of control
- T/C (endpoint: median survival time, dose: 72.0 mg/kg/injection, schedule: Q01DX001 (ip), vehicle: Klucel (hydroxypropylcellulose) (HPC), higher = longer survival): 122 % of control
- T/C (endpoint: median tumor weight (est.), dose: 18.0 mg/kg/injection, schedule: Q01DX001 (ip), vehicle: gum acacia, higher = larger tumour): 68 % of control
- T/C (endpoint: median tumor weight (est.), dose: 37.0 mg/kg/injection, schedule: Q01DX001 (ip), vehicle: gum acacia, higher = larger tumour): 23 % of control
- T/C (endpoint: median tumor weight (est.), dose: 55.0 mg/kg/injection, schedule: Q01DX001 (ip), vehicle: gum acacia, higher = larger tumour): 7 % of control

Compound: Cc1ccc2nc(-c3ccc(N=Cc4ccccc4O)cc3)sc2c1
- T/C (endpoint: median survival time, dose: 200.0 mg/kg/injection, schedule: Q01DX009 (ip), vehicle: olive oil, sesame oil, peanut oil, higher = longer survival): 87 % of control

Compound: [O-][n+]1c(CCl)nc2cccc3c2c1-c1ccccc1-3
- T/C (endpoint: median survival time, dose: 25.0 mg/kg/injection, schedule: Q01DX009 (ip), vehicle: saline with Tween-80, higher = longer survival): 106 % of control and 111 % of control
- T/C (endpoint: median survival time, dose: 50.0 mg/kg/injection, schedule: Q01DX009 (ip), vehicle: saline with Tween-80, higher = longer survival): 112 % of control and 118 % of control
- T/C (endpoint: median survival time, dose: 100.0 mg/kg/injection, schedule: Q01DX009 (ip), vehicle: saline with Tween-80, higher = longer survival): 94 % of control
